The source of these data is ChEMBL document CHEMBL4196033, “Potent hydrazone derivatives targeting esophageal cancer cells” (Eur J Med Chem, 2018).

Holding throughout (assay type): functional, cell-based
One test concerns MGC-803. The test is described as follows: Antiproliferative activity against human MGC803 cells after 72 hrs by MTT assay. The conditions noted are these: MGC-803, 72 h. For orientation: Tetrazolium assays rely on reduction of a dye to a coloured formazan, in cell work by metabolically active cells.
In the next test the test system is ECa-109 cell line. The test is described as follows: Antiproliferative activity against human EC109 cells after 72 hrs by MTT assay. The conditions noted are these: ECa-109, 72 h.
In another test the test system is EC9706. The test is described as follows: Antiproliferative activity against human EC9706 cells after 72 hrs by MTT assay. The conditions noted are these: EC9706, 72 h.
The test system of the next test is MCF7. The test is described as follows: Antiproliferative activity against human MCF7 cells after 72 hrs by MTT assay. The settings on record: MCF7, 72 h.
For another test, the system named is PC-3. The test is described as follows: Antiproliferative activity against human PC3 cells after 72 hrs by MTT assay. The settings on record: PC-3, 72 h.
For another test, the system named is SMMC-7721. The test is described as follows: Antiproliferative activity against human SMMC7721 cells after 72 hrs by MTT assay. The settings on record: SMMC-7721, 72 h.

Regarding `C/C(=N\NC(=O)c1cccc(S(=O)(=O)N2CCOCC2)c1)c1cc(Br)ccc1O`, the half-maximal inhibitory concentration (IC50) (in general, the point on the concentration scale where inhibition reaches its midpoint) was 18 µM in the test on MGC-803; 5.28 µM in the test on ECa-109 cell line; 24.7 µM in the test on EC9706; 7.83 µM with MCF7; 6.89 µM in the test on PC-3; 2.41 µM with SMMC-7721.
For `O=C(N/N=C/c1ccccn1)c1cccc(S(=O)(=O)N2CCOCC2)c1`, the IC50 was 81.7 µM with MGC-803; 55.7 µM in the test with ECa-109 cell line; 44.3 µM with EC9706; more than 100 µM in the test with MCF7; 88.1 µM with PC-3; more than 100 µM in the test on SMMC-7721.
Turning to `C/C(=N\NC(=O)c1cccc(S(=O)(=O)N2CCOCC2)c1)c1cc(O)ccc1O`, the IC50 is 9.09 µM in the test with MGC-803; 21.4 µM in the test on ECa-109 cell line; 3.51 µM with EC9706; more than 100 µM with MCF7; more than 100 µM with PC-3; more than 100 µM in the test with SMMC-7721.
As to `C/C(=N\NC(=O)c1cccc(S(=O)(=O)N2CCOCC2)c1)c1ccc(F)cc1`, the IC50 was more than 100 µM with MGC-803; more than 100 µM with ECa-109 cell line; more than 100 µM in the test on EC9706; more than 100 µM with MCF7; 81.3 µM with PC-3; more than 100 µM with SMMC-7721.
As to `O=C(N/N=C/c1cccs1)c1cccc(S(=O)(=O)N2CCOCC2)c1`, the IC50 in the test on MGC-803, in the test on ECa-109 cell line, in the test with EC9706, with MCF7, with PC-3 and with SMMC-7721 was more than 100 µM each time.
For the compound `C/C(=N\NC(=O)c1cccc(S(=O)(=O)N2CCOCC2)c1)c1ccccc1O`, the IC50 came to 1.22 µM in the test with MGC-803; 5.45 µM in the test on ECa-109 cell line; 1.22 µM in the test on EC9706; 5.4 µM in the test on MCF7; 2.81 µM in the test on PC-3; 1.37 µM in the test with SMMC-7721.
For `O=C(N/N=C/c1cc(Cl)ccc1O)c1cccc(S(=O)(=O)N2CCOCC2)c1`, the IC50 with MGC-803 stood at 11 µM; with ECa-109 cell line it was 2.84 µM; in the test with EC9706, 2.15 µM; in the test with MCF7 it was 16.4 µM; in the test with PC-3 it was 10.5 µM; in the test on SMMC-7721, 6.82 µM.
For the compound `C/C(=N\NC(=O)c1cccc(S(=O)(=O)N2CCOCC2)c1)c1ccccc1`, the IC50 in the test with MGC-803, in the test with ECa-109 cell line, in the test with EC9706, in the test with MCF7, with PC-3 and with SMMC-7721 was more than 100 µM each time.
Turning to `CCN(CC)c1ccc(/C=N/NC(=O)c2cccc(S(=O)(=O)N3CCOCC3)c2)c(O)c1`, the IC50 in the test on MGC-803 stood at 4.04 µM; in the test with ECa-109 cell line it was 0.73 µM; with EC9706 it was 0.92 µM; with MCF7 it was 3.52 µM; in the test on PC-3 it was 14 µM; with SMMC-7721, 27.1 µM.
Regarding `C/C(=N\NC(=O)c1cccc(S(=O)(=O)N2CCOCC2)c1)c1cccc(N)c1O`, the IC50 turned out to be 0.53 µM in the test on MGC-803; 5.06 µM in the test with ECa-109 cell line; 3.52 µM in the test with EC9706; 1.01 µM in the test on MCF7; 2.33 µM in the test with PC-3; 2.33 µM in the test with SMMC-7721.
On to `O=C(N/N=C/c1ccco1)c1cccc(S(=O)(=O)N2CCOCC2)c1`, for which the IC50 in the test with MGC-803, in the test with ECa-109 cell line, in the test on EC9706, in the test with MCF7, in the test on PC-3 and in the test on SMMC-7721 was more than 100 µM each time.
`O=c1[nH]cc(F)c(=O)[nH]1` [FLUOROURACIL]: the IC50 worked out at 9.24 µM in the test with MGC-803; 6.02 µM in the test on ECa-109 cell line; 5.13 µM with EC9706; 18.8 µM in the test with MCF7; 6.27 µM in the test on PC-3; 13.7 µM in the test with SMMC-7721.
Regarding `O=C(N/N=C/c1cc(Br)ccc1O)c1cccc(S(=O)(=O)N2CCOCC2)c1`, the IC50 in the test with MGC-803 came out at 14.8 µM; with ECa-109 cell line, 11.7 µM; in the test on EC9706 it was 29.7 µM; in the test with MCF7 it was 26.6 µM; with PC-3, 7.23 µM; in the test with SMMC-7721, 9.94 µM.
In the case of `C/C(=N\NC(=O)c1cccc(S(=O)(=O)N2CCOCC2)c1)c1cccc(O)c1`, the IC50 with MGC-803, in the test with ECa-109 cell line, with EC9706, with MCF7, in the test with PC-3 and with SMMC-7721 was more than 100 µM in each case.
With `C/C(=N\NC(=O)c1cccc(S(=O)(=O)N2CCOCC2)c1)c1ccc(O)cc1`, the IC50 in the test on MGC-803 is 71.4 µM; in the test with ECa-109 cell line, 88.3 µM; in the test with EC9706, 71.4 µM; in the test on MCF7 it was more than 100 µM; with PC-3, 36.2 µM; in the test with SMMC-7721, 88.5 µM.
For `O=C(N/N=C/c1cc(Br)cc(Br)c1O)c1cccc(S(=O)(=O)N2CCOCC2)c1`, the IC50 in the test on MGC-803 worked out at 17.8 µM; in the test on ECa-109 cell line, 10.3 µM; in the test on EC9706, 2.44 µM; in the test on MCF7, 16 µM; in the test on PC-3 it was 9.7 µM; in the test on SMMC-7721, 7.31 µM.
For `NNC(=O)c1cccc(S(=O)(=O)N2CCOCC2)c1`, the IC50 with ECa-109 cell line and in the test with EC9706 was more than 100 µM each time.
As to `C/C(=N\NC(=O)c1cccc(S(=O)(=O)N2CCOCC2)c1)c1cccc(N)c1`, the IC50 in the test with MGC-803, with ECa-109 cell line, with EC9706, with MCF7, with PC-3 and in the test on SMMC-7721 was more than 100 µM each time.
With `CCOc1cccc(/C=N/NC(=O)c2cccc(S(=O)(=O)N3CCOCC3)c2)c1O`, the IC50 was found to be 18 µM in the test on MGC-803; 16.5 µM with ECa-109 cell line; 15.4 µM in the test on EC9706; 19.3 µM in the test with MCF7; 15.3 µM with PC-3; 6.99 µM with SMMC-7721.
As to `O=C(N/N=C/c1ccccc1O)c1cccc(S(=O)(=O)N2CCOCC2)c1`, the IC50 in the test on MGC-803 came to 25.3 µM; in the test on ECa-109 cell line, 14.4 µM; in the test with EC9706 it was 19.6 µM; in the test with MCF7, 29.1 µM; in the test on PC-3, 13.8 µM; in the test on SMMC-7721, 12.1 µM.
For the compound `C/C(=N\NC(=O)c1cccc(S(=O)(=O)N2CCOCC2)c1)c1cc(F)ccc1O`, the half-inhibitory concentration (IC50) in the test on MGC-803 came to 2.26 µM; in the test with ECa-109 cell line, 3.27 µM; in the test on EC9706, 2.21 µM; in the test on MCF7 it was 6.65 µM; in the test on PC-3 it was 4.41 µM; in the test with SMMC-7721 it was 1.15 µM.
